Experimental data from ChEMBL document CHEMBL6109092, “Anti-HBV activity of (R)-gentiandiol, a metabolite of Swertiamarin, in transgenic mice: Insights from non-targeted serum metabolomics” (Bioorg Med Chem, 2025).
Active and inactive are the calls of the source. No cut-off for these calls is given here.

Experiments:
Assay type in all cases: functional, organism-based
[1] = test system: Hepatitis B virus; assay: In vivo antiviral activity against HBV infected in male C57BL/6NCrl mouse assessed as reduction in HBV-DNA level at 0.065 mg/kg, IG measured after 8 weeks by ELISA
[2] = test system: Hepatitis B virus; assay: In vivo antiviral activity against HBV infected in male C57BL/6NCrl mouse assessed as reduction in HBeAg level at 0.065 mg/kg, IG measured after 8 weeks by ELISA
[3] = test system: Hepatitis B virus; assay: In vivo antiviral activity against HBV infected in male C57BL/6NCrl mouse assessed as reduction in HBsAg level at 0.065 mg/kg, IG measured after 8 weeks by ELISA
[4] = test system: Mus musculus; assay: Reversal of tyrosine in HBV infected male C57BL/6NCrl mouse serum at 0.026 mg/kg, IG by UPLC-Q/TOF-MS analysis.
[5] = test system: Mus musculus; assay: Reversal of citric acid level in HBV infected male C57BL/6NCrl mouse serum at 0.026 mg/kg, IG by UPLC-Q/TOF-MS analysis.
[6] = test system: Mus musculus; assay: Reversal of arachidonic acid level in HBV infected male C57BL/6NCrl mouse serum at 0.026 mg/kg, IG by UPLC-Q/TOF-MS analysis.
[7] = test system: Hepatitis B virus; assay: In vivo antiviral activity against HBV infected in male C57BL/6NCrl mouse assessed as reduction in HBeAg level at 0.026 g/Kg, IG measured after 8 weeks by ELISA
[8] = test system: Hepatitis B virus; assay: In vivo antiviral activity against HBV infected in male C57BL/6NCrl mouse assessed as reduction in HBV-DNA level at 0.026 g/Kg, IG measured after 8 weeks by ELISA
[9] = test system: Mus musculus; assay: Reversal of phenylalanine level in HBV infected male C57BL/6NCrl mouse serum at 0.026 mg/kg, IG by UPLC-Q/TOF-MS analysis.
[10] = test system: Hepatitis B virus; assay: In vivo antiviral activity against HBV infected in male C57BL/6NCrl mouse assessed as reduction in HBsAg level at 0.026 g/Kg, IG measured after 8 weeks by ELISA
[11] = test system: Hepatitis B virus; assay: In vivo antiviral activity against HBV infected in male C57BL/6NCrl mouse assessed as reduction in HBsAg level at 6 mg/kg administered via tail vein measured after 8 weeks by ELISA
[12] = test system: Hepatitis B virus; assay: In vivo antiviral activity against HBV infected in male C57BL/6NCrl mouse assessed as reduction in HBV-DNA level at 6 mg/kg administered via tail vein measured after 8 weeks by ELISA
[13] = test system: Hepatitis B virus; assay: In vivo antiviral activity against HBV infected in male C57BL/6NCrl mouse assessed as reduction in HBeAg level at 6 mg/kg administered via tail vein measured after 8 weeks by ELISA
[14] = test system: Hepatitis B virus; assay: In vivo antiviral activity against HBV infected in male C57BL/6NCrl mouse assessed as reduction in HBsAg level at 1.5 mg/kg administered via tail vein measured after 8 weeks by ELISA
[15] = test system: Hepatitis B virus; assay: In vivo antiviral activity against HBV infected in male C57BL/6NCrl mouse assessed as reduction in HBsAg level at 3 mg/kg administered via tail vein measured after 8 weeks by ELISA
[16] = test system: Mus musculus; assay: Reduction in taurocholic acid in HBV infected male C57BL/6NCrl mouse serum at 50 to 150 mg/kg, administered via tail vein by UPLC-Q/TOF-MS analysis.; conditions: dose 50-150 mg/kg
[17] = test system: Mus musculus; assay: Reversal of citric acid level in HBV infected male C57BL/6NCrl mouse serum at 50 to 150 mg/kg, administered via tail vein by UPLC-Q/TOF-MS analysis.; conditions: dose 50-150 mg/kg
[18] = test system: Hepatitis B virus; assay: In vivo antiviral activity against HBV infected in male C57BL/6NCrl mouse assessed as reduction in HBeAg level at 3 mg/kg administered via tail vein measured after 8 weeks by ELISA
[19] = test system: Mus musculus; assay: Reversal of tyrosine in HBV infected male C57BL/6NCrl mouse serum at 50 to 150 mg/kg, administered via tail vein by UPLC-Q/TOF-MS analysis.; conditions: dose 50-150 mg/kg
[20] = test system: Mus musculus; assay: Reversal of phenylalanine level in HBV infected male C57BL/6NCrl mouse serum at 50 to 150 mg/kg, administered via tail vein by UPLC-Q/TOF-MS analysis.; conditions: dose 50-150 mg/kg
[21] = test system: Hepatitis B virus; assay: In vivo antiviral activity against HBV infected in male C57BL/6NCrl mouse assessed as reduction in HBV-DNA level at 1.5 mg/kg administered via tail vein measured after 8 weeks by ELISA
[22] = test system: Mus musculus; assay: Reversal of arachidonic acid level in HBV infected male C57BL/6NCrl mouse serum at 50 to 150 mg/kg, administered via tail vein by UPLC-Q/TOF-MS analysis.; conditions: dose 50-150 mg/kg
[23] = test system: Hepatitis B virus; assay: In vivo antiviral activity against HBV infected in male C57BL/6NCrl mouse assessed as reduction in HBV-DNA level administered via tail vein measured after 8 weeks by ELISA; conditions: dose 1.5-6 mg/kg
[24] = test system: Hepatitis B virus; assay: In vivo antiviral activity against HBV infected in male C57BL/6NCrl mouse assessed as reduction in HBV-DNA level at 3 mg/kg administered via tail vein measured after 8 weeks by ELISA
[25] = test system: Hepatitis B virus; assay: In vivo antiviral activity against HBV infected in male C57BL/6NCrl mouse assessed as reduction in HBeAg level at 1.5 mg/kg administered via tail vein measured after 8 weeks by ELISA

## C=C1[C@H](CO)[C@@H](O)C[C@@H]1n1cnc2c(=O)[nH]c(N)nc21
[1]
  Activity: Active
[2]
  Activity: Active
[3]
  Activity: Active

## C=C[C@H]1[C@H](O[C@@H]2O[C@H](CO)[C@@H](O)[C@H](O)[C@H]2O)OC=C2C(=O)OCC[C@]21O
[4]
  Activity: Active
[5]
  Activity: Active
[6]
  Activity: Active
[7]
  Activity: Active
[8]
  Activity: Active
[9]
  Activity: Active
[10]
  Activity: Active

## O=C1OCCc2c1cncc2[C@H](O)CO
[11]
  Activity: inactive
[12]
  Activity: inactive
[13]
  Activity: inactive

## O=C1OCCc2c1cncc2[C@@H](O)CO
[11]
  Activity: Active
[12]
  Activity: Active
[14]
  Activity: Active
[15]
  Activity: Active
[16]
  Activity: Active
[17]
  Activity: Active
[18]
  Activity: Active
[19]
  Activity: Active
[20]
  Activity: Active
[21]
  Activity: Active
[22]
  Activity: Active
[23]
  Activity: Dose-dependent-effect
[13]
  Activity: Active
[24]
  Activity: Active
[25]
  Activity: Active
